We go through 31 compounds from a melting point compilation (Tetko et al.; mined from patent text by program, amines drawn as free bases though some values may be those of a salt).

Structures are written as SMILES. Bounds are passed on as bounds.

One may read the melting point as the temperature of the solid-liquid transition.

`CCCCN(CC)c1nc(C)nc2c1C(C)(C)C(O)N2c1c(C)cc(C)cc1C` (stereo unspecified): the melting point fell in the range of 142 to 145 °C.

Compound `CCCCOC1OC(CO)C(O)(N(CC)C(=O)N(CCCl)N=O)C(O)C1O` (stereo unspecified) yielded a melting point of 75 to 77 °C.

For `O=C(O)C(CCc1ccccc1)Oc1c(Br)cc(-c2ccc(-c3c(Cc4ccccc4)sc4ccccc34)cc2)cc1Br` (stereo unspecified), the melting point lay in the range of 85 to 87 °C.

Regarding `CC(C)(C)c1cc(SC2CC(=O)N(c3ccccc3N3C(=O)CC(Sc4cc(C(C)(C)C)c(O)c(C(C)(C)C)c4)C3=O)C2=O)cc(C(C)(C)C)c1O` (stereo unspecified), the melting point lay in the range of 128 to 133 °C.

`CC1CC2C3CCC4=CC(=O)C=CC4(C)C3=CCC2(C)C1C(=O)CN1CCN(c2cc(N3CCCC3)nc(NC34CC5CC(CC(C5)C3)C4)n2)CC1` (stereo unspecified) came in with a melting point of 155 to 172 °C.

For `CC(c1oc2ccccc2c(=O)c1-c1cccc(F)c1)n1ncc2c(Cl)ncnc21` (stereo unspecified), the melting point is 197 to 201 °C.

Consider `Cc1c(CC(C)C(=O)c2cn(C)c3ccccc23)ncn1C(c1ccccc1)(c1ccccc1)c1ccccc1` (stereo unspecified), for which the melting point fell in the range of 209 to 210 °C.

On to `CCCCCCN(Cc1ccccc1)Cc1nc(-c2ccc(-c3ccccc3)cc2)c[nH]1`, for which the melting point fell in the range of 120 to 122 °C.

The compound `CC(C)([C@H](NC(=O)c1ccccc1)C(=O)N[C@@H](Cc1ccccc1)[C@H](O)CN1C[C@H]2CCCC[C@H]2C[C@H]1C(=O)NCc1ccccc1)S(C)(=O)=O` showed a melting point of 212 to 218 °C.

For `CC(C)(O)CCOc1c(-c2ccc(S(C)(=O)=O)cc2)cnn(-c2ccc(F)c(Cl)c2)c1=O`, the melting point is 108 to 110 °C.

The compound `CC1=Nc2ccc(S(=O)(=O)NC3CCCCC3)cc2S(=O)(=O)N1` displayed a melting point of 239 to 242 °C.

Turning to `Clc1ncn(COc2ccc(Oc3ccccc3)cc2)c1Cl`, the melting point fell in the range of 82 to 83 °C.

Regarding `CCCCc1nc2cc(-c3ccccc3)cc(C(=O)O)c2n1Cc1ccccc1Cl`, the melting point is 236 to 238 °C.

The compound `COc1nc2nc(C=C3C(=O)N4C(C(=O)O)=CSC34)cn2c2c1CCC2` (stereo unspecified) came in with a melting point of over 250 °C.

As to `NN=C(c1ccccc1)c1cc(Cl)ccc1N`, the melting point is 133 to 134 °C.

With `CCOc1cc(Cl)ccc1-c1nc2n(C3CCCC3)[nH]c(CC)c-2c(=O)n1`, the melting point fell in the range of 185 to 187 °C.

The compound `COc1ccc2oc(=O)c(S(=O)(=O)Nc3ccc(F)c(N)c3)cc2c1` gave a melting point of 255 to 260 °C.

In turn, `CCCCc1nn(-c2ccc([N+](=O)[O-])cc2C(F)(F)F)c(=O)n1Cc1ccc(-c2ccccc2S(=O)(=O)NC(C)(C)C)cc1` had a melting point of over 78 °C.

Regarding `N#Cc1c(O)c2sccc2[nH]c1=O`, the melting point was over 300 °C.

`Cc1c(CCCCCCCC(=O)O)cccc1C(=O)c1ccc(Cl)cc1` had a melting point of 70 °C.

Regarding `COc1cc(C)c(C(=O)c2c(OC)cnc(Cl)c2Cl)c(OC)c1OC`, the melting point is 98 to 99 °C.

For the compound `O=C1NC(NCC2CC2)=N/C1=C\c1c[nH]c2ncc(F)cc12`, the melting point stood at 312 °C.

`CCC(=O)OC1CCC2C3CCC4=CC(=O)CCC4(C=O)C3CCC12C` (stereo unspecified): the melting point lay in the range of 119 to 121 °C.

`Cc1c(C(=O)c2sc(Nc3ccc(S(N)(=O)=O)cc3)nc2N)sc2ccccc12`: the melting point lay within 274 to 276 °C.

Consider `CCN1CCCCC1CCc1ccccc1NC(=O)c1ccc(OC)cc1` (stereo unspecified), for which the melting point fell in the range of 136 to 138 °C.

In turn, `Cc1cc(Cl)n2nc(S(=O)(=O)Nc3c(Cl)cccc3Cl)nc2n1` registered a melting point of 217 to 220 °C.

Take `N#Cc1cnc2cc(Br)sc2c1Cl`: the melting point fell in the range of 190 to 191 °C.

Take `O=C1NCCCc2cc(CCN3CCC(c4noc5cc(F)ccc45)CC3)sc21`: the melting point lay within 192 to 194 °C.

Regarding `C(=C\c1cc(/C=C/c2ccc3cc[nH]c3c2)n[nH]1)/c1ccc(OCc2ccccn2)cc1`, the melting point was in the range of 211 to 214 °C.

Compound `O=C1C2CC3CC2C(C(=O)O)(C3)N1Cc1ccccc1` (stereo unspecified) gave a melting point of 191 to 194 °C.

In turn, `O=C1N(Cc2ccco2)c2ccccc2C12COc1cc3c(cc12)OCO3` (stereo unspecified) yielded a melting point of 110 to 112 °C.
